Nine compounds from BindingDB's records for doi:10.1016/j.bmcl.2017.05.024 (Yeungnam University, 2017) can be followed below.

As usually defined, the IC50 is the concentration at which inhibition is half-maximal. Read a low IC50 as greater potency.

In the test the target is Hypoxia-inducible factor 1-alpha (Homo sapiens, UniProt Q16665). The test is described as follows: ChEBML_1685544. From the text: Inhibition of hypoxia-induced HIF1alpha (unknown origin) transcriptional activity expressed in human HCT116 cells by HRE luciferase reporter gene assay
Hypoxia-inducible factor 1-alpha, sequence (Q16665 whole entry): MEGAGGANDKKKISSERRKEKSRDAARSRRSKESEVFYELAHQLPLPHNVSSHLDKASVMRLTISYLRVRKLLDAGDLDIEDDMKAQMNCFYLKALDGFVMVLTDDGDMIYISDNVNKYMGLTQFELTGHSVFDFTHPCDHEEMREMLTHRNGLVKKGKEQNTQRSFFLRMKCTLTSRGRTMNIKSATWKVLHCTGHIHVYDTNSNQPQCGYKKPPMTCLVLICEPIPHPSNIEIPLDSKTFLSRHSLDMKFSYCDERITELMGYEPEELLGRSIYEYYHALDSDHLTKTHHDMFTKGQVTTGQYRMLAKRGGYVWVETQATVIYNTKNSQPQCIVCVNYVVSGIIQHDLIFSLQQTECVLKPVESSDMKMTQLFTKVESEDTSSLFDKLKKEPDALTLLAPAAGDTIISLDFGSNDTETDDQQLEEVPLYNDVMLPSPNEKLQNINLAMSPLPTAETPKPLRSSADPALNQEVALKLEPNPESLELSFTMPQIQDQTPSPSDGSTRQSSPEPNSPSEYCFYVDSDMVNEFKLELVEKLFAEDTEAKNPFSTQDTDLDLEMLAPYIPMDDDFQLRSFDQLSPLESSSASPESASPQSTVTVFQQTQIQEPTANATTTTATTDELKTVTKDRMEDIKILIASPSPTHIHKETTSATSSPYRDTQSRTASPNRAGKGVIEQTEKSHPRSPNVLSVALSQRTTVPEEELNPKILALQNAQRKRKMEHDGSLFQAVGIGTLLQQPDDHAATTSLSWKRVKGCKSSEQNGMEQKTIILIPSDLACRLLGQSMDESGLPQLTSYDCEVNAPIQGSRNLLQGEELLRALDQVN
With `CO/N=C(/C(=O)OC)c1ccccc1COc1cccc(OCc2ccccc2)c1`, half-maximal inhibition (IC50) required 1.12 µM. Under `CO/N=C(\C)c1cccc(OCc2ccccc2/C(=N\OC)C(=O)OC)c1` stands 4.52 µM; under `CO/N=C/c1ccc(OC)c(OCc2ccccc2/C(=N\OC)C(=O)OC)c1`, 14.9 µM. The compound `CO/N=C(/C(=O)OC)c1ccccc1COc1cccc(OCc2ccc(Cl)cc2)c1` registered an IC50 of 0.6 µM.

`CO/N=C(/C(=O)OC)c1ccccc1COc1cccc(O)c1`: the IC50 stood at 9.16 µM. Under `CO/N=C(/C(=O)OC)c1ccccc1COc1cccc(OCC#N)c1` stands > 20 µM; under `CO/N=C/c1cccc(OCc2ccccc2/C(=N\OC)C(=O)OC)c1`, 3.4 µM. Under `CO/N=C(/C(=O)OC)c1ccccc1COc1cccc(OCc2cc(C(F)(F)F)cc(C(F)(F)F)c2)c1` stands 0.94 µM; under `C=Cc1ccc(COc2cccc(OCc3ccccc3/C(=N\OC)C(=O)OC)c2)cc1`, 0.87 µM.
